Laboratory results published in US20260347337A1, “MICROBIOCIDAL PYRAZOLE DERIVATIVES” (priority 2022, published 2026).

What was measured:
Alternaria solani = assay: Alternaria solani/tomato/leaf disc (early blight); format: in vivo; conditions: 200 ppm; tomato leaf disks cv. Baby; inoculated 2 days after application; assessed 5-7 days after application
Procedure: Example B1: Alternaria solani/Tomato/Leaf Disc (Early Blight)
Tomato leaf disks cv. Baby are placed on agar in multiwell plates (24-well format) and sprayed with the formulated test compound diluted in water. The leaf disks are inoculated with a spore suspension of the fungus 2 days after application. The inoculated leaf disks are incubated at 23° C./21° C. (day/night) and 80% rh under a light regime of 12/12 h (light/dark) in a climate cabinet and the activity of a compound is assessed as percent disease control compared to untreated when an appropriate level of disease damage appears on untreated check disk leaf disks (5-7 days after application).

[1] = tested on: Botryotinia fuckeliana (Botrytis cinerea); assay: Botryotinia fuckeliana (Botrytis cinerea)/liquid culture (gray mould), inhibition of growth; format: cell-based; conditions: liquid culture, Vogels broth, 24° C., 3-4 days after application, read-out: control of Botryotinia fuckeliana (inhibition of growth vs untreated)
Procedure: Example B2: Botryotinia fuckeliana (Botrytis cinerea)/Liquid Culture (Gray Mould)
(§1) Conidia of the fungus from cryogenic storage are directly mixed into nutrient broth (Vogels broth). After placing a (DMSO) solution of test compound into a microtiter plate (96-well format), the nutrient broth containing the fungal spores is added. The test plates are incubated at 24° C. and the inhibition of growth is determined photometrically 3-4 days after application.

[2] = tested on: Glomerella lagenarium (Colletotrichum lagenarium); assay: Glomerella lagenarium (Colletotrichum lagenarium)/liquid culture (anthracnose), inhibition of growth; format: cell-based; conditions: Colletotrichum orbiculare, liquid culture, PDB, 24° C., 3-4 days after application, read-out: control of Glomerella lagenarium (inhibition of growth vs untreated)
Procedure: Example B3: Glomerella lagenarium (Colletotrichum lagenarium)/Liquid Culture (Anthracnose)
as §1, with “(PDB potato dextrose” for “(Vogels”, “measured” for “determined”

[3] = tested on: Blumeria graminis f. sp. tritici (Erysiphe graminis f. sp. tritici); assay: Blumeria graminis f. sp. tritici/wheat/leaf disc preventative (powdery mildew on wheat); format: in vivo; conditions: 200 ppm, wheat leaf segments cv. Kanzler, inoculated 1 day after application, assessed 6-8 days after application
Procedure: Example B4: Blumeria graminis f. Sp. Tritici (Erysiphe graminis f. Sp. Tritici)/Wheat/Leaf Disc Preventative (Powdery Mildew on Wheat)
Wheat leaf segments cv. Kanzler are placed on agar in a multiwell plate (24-well format) and sprayed with the formulated test compound diluted in water. The leaf disks are inoculated by shaking powdery mildew infected plants above the test plates 1 day after application. The inoculated leaf disks are incubated at 20° C. and 60% rh under a light regime of 24 h darkness followed by 12 h light/12 h darkness in a climate chamber and the activity of a compound is assessed as percent disease control compared to untreated when an appropriate level of disease damage appears on untreated check leaf segments (6-8 days after application).

Fusarium culmorum [4] = assay: microbe, parasite or virus in culture; format: cell-based; conditions: read-out: control of Fusarium culmorum (inhibition of growth vs untreated)
[5] = tested on: Phaeosphaeria nodorum (Septoria nodorum); assay: Phaeosphaeria nodorum (Septoria nodorum)/wheat/leaf disc preventative (glume blotch); format: in vivo; conditions: 200 ppm, wheat leaf segments cv. Kanzler, inoculated 2 days after application, assessed 5-7 days after application
Procedure: Example B7: Phaeosphaeria nodorum (Septoria nodorum)/Wheat/Leaf Disc Preventative (Glume Blotch)
(§2) Wheat leaf segments cv. Kanzler are placed on agar in a multiwell plate (24-well format) and sprayed with the formulated test compound diluted in water. The leaf disks are inoculated with a spore suspension of the fungus 2 days after application. The inoculated test leaf disks are incubated at 20° C. and 75% rh under a light regime of 12 h light/12 h darkness in a climate cabinet and the activity of a compound is assessed as percent disease control compared to untreated when an appropriate level of disease damage appears in untreated check leaf disks (5-7 days after application).

[6] = tested on: Monographella nivalis (Microdochium nivale); assay: Monographella nivalis (Microdochium nivale)/liquid culture (foot rot cereals), inhibition of growth; format: cell-based; conditions: liquid culture, PDB, 24° C., 4-5 days after application, read-out: control of Monographella nivalis (inhibition of growth vs untreated)
Procedure: Example B8: Monographella nivalis (Microdochium nivale)/Liquid Culture (Foot Rot Cereals)
as §1, with “(PDB potato dextrose” for “(Vogels”, “4-5” for “3-4”

[7] = tested on: Mycosphaerella arachidis (Cercospora arachidicola); assay: Mycosphaerella arachidis (Cercospora arachidicola)/liquid culture (early leaf spot), inhibition of growth; format: cell-based; conditions: liquid culture, PDB, 24° C., 4-5 days after application, read-out: control of Mycosphaerella arachidis (inhibition of growth vs untreated)
Procedure: Example B9: Mycosphaerella arachidis (Cercospora arachidicola)/Liquid Culture (Early Leaf Spot)
as §1, with “(PDB potato dextrose” for “(Vogels”, “4-5” for “3-4”

Pyrenophora teres = assay: Pyrenophora teres/barley/leaf disc preventative (net blotch); format: in vivo; conditions: 200 ppm, barley leaf segments cv. Hasso, inoculated 2 days after application, assessed 5-7 days after application
Procedure: Example B10: Pyrenophora teres/Barley/Leaf Disc Preventative (Net Blotch)
as §2, with “Barley” for “Wheat”, “Hasso” for “Kanzler”, “segments” for “disks”, “inoculated” for “inoculated test”, “65%” for “75%”, “as” for “as percent”

[8] = tested on: Mycosphaerella graminicola (Septoria tritici); assay: Mycosphaerella graminicola (Septoria tritici)/liquid culture (Septoria blotch), inhibition of growth; format: cell-based; conditions: Zymoseptoria tritici, liquid culture, PDB, 24° C., 4-5 days after application, read-out: control of Mycosphaerella graminicola (inhibition of growth vs untreated)
Procedure: Example B12: Mycosphaerella graminicola (Septoria tritici)/Liquid Culture (Septoria Blotch)
as §1, with “(PDB potato dextrose” for “(Vogels”, “4-5” for “3-4”

Plasmopara viticola = format: in vivo; conditions: 200 ppm; grape vine leaf disks; preventative, inoculated 1 day after application; assessed 6-8 days after application
Phytophthora infestans = format: in vivo; conditions: 200 ppm; tomato leaf disks; preventative, inoculated 1 day after application; assessed 5-7 days after application
Sclerotinia sclerotiorum = assay: Sclerotinia sclerotiorum/liquid culture (cottony rot), inhibition of growth; format: cell-based; conditions: liquid culture (mycelia fragments), PDB, 24° C., 3-4 days after application, read-out: control of Sclerotinia sclerotiorum (inhibition of growth vs untreated)
Procedure: Example B11: Sclerotinia sclerotiorum/Liquid Culture (Cottony Rot)
as §1, with “Mycelia fragments of a newly grown liquid culture” for “Conidia”, “fungus” for “fungus from cryogenic storage”, “(PDB potato dextrose” for “(Vogels”, “format)” for “format),”, “material” for “spores”

Fusarium culmorum [9] = format: in vivo; conditions: 200 ppm; wheat spikelets cv. Monsun; preventative, inoculated 1 day after application; assessed 6-8 days after application
[10] = tested on: Gibberella zeae (Fusarium graminearum); format: in vivo; conditions: 200 ppm; wheat spikelets cv. Monsun; preventative, inoculated 1 day after application; assessed 6-8 days after application

SMILES | control of Alternaria solani (percent disease control compared to untreated) (Alternaria solani) | inhibition of growth at 20 ppm [1] | inhibition of growth at 20 ppm [2] | control of Blumeria graminis f. sp. tritici (percent disease control compared to untreated) [3] | inhibition of growth at 20 ppm (Fusarium culmorum [4]) | control of Phaeosphaeria nodorum (percent disease control compared to untreated) [5] | inhibition of growth at 20 ppm [6] | inhibition of growth at 20 ppm [7] | control of Pyrenophora teres (disease control compared to untreated) (Pyrenophora teres) | inhibition of growth at 20 ppm [8] | control of Plasmopara viticola (percent disease control compared to untreated) (Plasmopara viticola) | control of Phytophthora infestans (percent disease control compared to untreated) (Phytophthora infestans) | inhibition of growth at 20 ppm (Sclerotinia sclerotiorum) | control of Fusarium culmorum (percent disease control compared to untreated) (Fusarium culmorum [9]) | control of Gibberella zeae (percent disease control compared to untreated) [10]
Cn1cc(C(C)(CNC(=O)c2cn(-c3ccc(F)cc3F)nn2)c2cccc(Cl)n2)cn1 (stereo not shown) [Compound P-1, N-[2-(6-chloro-2-pyridyl)-2-(1-methylpyrazol-4-yl)propyl]-1-(2,4-difluorophenyl)triazole-4-carboxamide] | at least 80% | ≥ 80% | ≥ 80% | at least 80% | ≥ 80% | at least 80% | ≥ 80% | ≥ 80% | at least 80% | ≥ 80% | at least 80% |  |  |  | 
Cn1cc(C(C)(CNC(=O)c2cnn(-c3ccc(F)cc3F)n2)c2cccc(C#N)n2)cn1 (stereo not shown) [Compound P-2, N-[2-(6-cyano-2-pyridyl)-2-(1-methylpyrazol-4-yl)propyl]-2-(2,4-difluorophenyl)triazole-4-carboxamide] |  |  |  | at least 80% |  |  |  |  |  |  | at least 80% | at least 80% |  |  | 
Cn1cc(C(C)(CNC(=O)c2cnn(-c3ccc(F)cc3F)n2)c2cccc(Cl)n2)cn1 (stereo not shown) [Compound P-3, N-[2-(6-chloro-2-pyridyl)-2-(1-methylpyrazol-4-yl)propyl]-2-(2,4-difluorophenyl)triazole-4-carboxamide] | at least 80% |  |  |  |  |  |  |  | at least 80% |  |  |  |  |  | 
Cn1cc(C(C)(CNC(=O)c2nnn(-c3ccc(F)cc3F)n2)c2cccc(C#N)n2)cn1 (stereo not shown) [Compound P-5, N-[2-(6-cyano-2-pyridyl)-2-(1-methylpyrazol-4-yl)propyl]-2-(2,4-difluorophenyl)tetrazole-5-carboxamide] | at least 80% | ≥ 80% | ≥ 80% | at least 80% |  | at least 80% | ≥ 80% | ≥ 80% | at least 80% | ≥ 80% |  |  | ≥ 80% |  | 
Cn1cc(C(C)(CNC(=O)c2nnn(-c3ccc(F)cc3F)n2)c2cccc(Cl)n2)cn1 (stereo not shown) [Compound P-6, N-[2-(6-chloro-2-pyridyl)-2-(1-methylpyrazol-4-yl)propyl]-2-(2,4-difluorophenyl)tetrazole-5-carboxamide] | at least 80% | ≥ 80% | ≥ 80% | at least 80% | ≥ 80% | at least 80% | ≥ 80% | ≥ 80% | at least 80% | ≥ 80% |  |  | ≥ 80% | at least 80% | 
Cn1cc(C(C)(CNC(=O)c2cn(-c3ncc(F)cc3F)nn2)c2cccc(Cl)n2)cn1 (stereo not shown) [Compound P-7, N-[2-(6-chloro-2-pyridyl)-2-(1-methylpyrazol-4-yl)propyl]-1-(3,5-difluoro-2-pyridyl)triazole-4-carboxamide] | at least 80% | ≥ 80% | ≥ 80% | at least 80% | ≥ 80% | at least 80% | ≥ 80% | ≥ 80% | at least 80% | ≥ 80% |  |  |  |  | at least 80%
Cn1cc(C(C)(CNC(=O)c2cn(-c3ccc(F)cc3F)nn2)c2cccc(Br)n2)cn1 (stereo not shown) [Compound P-8, N-[2-(6-bromo-2-pyridyl)-2-(1-methylpyrazol-4-yl)propyl]-1-(2,4-difluorophenyl)triazole-4-carboxamide] | at least 80% | ≥ 80% | ≥ 80% | at least 80% | ≥ 80% | at least 80% | ≥ 80% | ≥ 80% | at least 80% | ≥ 80% |  |  |  |  | 
Cn1cc(C(C)(CNC(=O)c2cn(-c3ccc(F)cc3F)nn2)c2cccc(C#N)n2)cn1 (stereo not shown) [Compound P-9, N-[2-(6-cyano-2-pyridyl)-2-(1-methylpyrazol-4-yl)propyl]-1-(2,4-difluorophenyl)triazole-4-carboxamide] |  |  |  | at least 80% |  | at least 80% | ≥ 80% |  | at least 80% | ≥ 80% |  |  |  |  | 
